Measurements as given in patent US12338266B2 (GENETIC S.P.A., priority 2019, dated 2025).
“Also recorded” adds a separate entry of the source.

Legend:
[1] = tested on: mice with OVA-induced allergic asthma; test: Plasma IgE levels by ELISA in OVA-sensitized mice (Protocol-1); assay type: in vivo, Balb/c mice
Description: Balb/c mice (8-9 weeks old, Charles River, Calco, Italy) were housed in the animal care facility at the Department of Pharmacy of the University of Naples. Italy in a controlled environment (temperature 21±2° C. and humidity 60±10%) and provided with standard rodent chow and water. All animals were allowed to acclimate for four days prior to experiments and were subjected to 12 h light-12 h dark schedule. Each mouse was assigned an identity number and randomtzed to different groups so that all experiments were carried out in a blinded manner. The experimental procedures were approved by the Italian Ministry according to International and National law and policies (EU Directive 2010/63/EU and Italian DL 26/2014 for animal experiments, ARRIVE guidelines and the Basel declaration including the 3R concept). Animal studies are reported in compliance with the ARRIVE guidelines. Balb/c mice is the most widely mouse strain used to study asthma-like features in vivo and to investigate the undedying molecular and cellular mechanisms of allergen sensitization. Mice were treated subcutaneously (s.c.) with 0.4 mL (100 μg) of ovalbumin (OVA) complexed with alum (13 mg mL^−1) (OVA group) at day 0 and 7. Chicken egg-white ovalbumin (OVA: grade V. cat. A5503, Sigma Chemical Co., St. Louis, MO) was dissolved in sterile phosphate buffered saline (PBS) solution (250 μg/1 ml) and Al(OH)3 was added (at 13 mg/ml). This mix was used to induce the allergic sensitization of the animals by subcutaneous injection. OVA was dissolved at 3% in sterile PBS solution and this solution was nebulized (as the immunological challenges). At day 21 mice were exposed to OVA challenge for three days and then sacrificed. This experimental procedure induces in the mice an increase in plasma IgE levels and this effect is by itself sufficient to induce a significant increase in bronchial hyper-responsiveness and pulmonary inflammation, typical hallmarks of asthma. A group of animals was treated s.c. with saline (vehicle group). […] Animals were killed at selected time points by overdose of enflurane and bronchi and blood collected.
Blood was collected by intracardiac puncture using citrate as anticoagulant. Plasma was obtained by centrifugation at 800×g at 4′C for 10 minutes and immediately frozen at −80° C. Total IgE levels were measured by means of ELISA using matched antibody pairs (BD Biosciences Pharmingen San Jose, Calif.).

[2] = tested on: mice with OVA-induced allergic asthma; test: Lung hyperreactivity / Penh by whole body plethysmography (Protocol-2); assay type: in vivo, Balb/c mice
Description: Male Balb/c SPF mice (26*2 g, 6 week-old) were purchased from the animal house facilities at the Faculty of Medicine (University of Sāo Paulo, Brazil). They were group-housed in a temperature-controlled room at 22° C. with a 12/12-hour light/dark cycle and allowed free access to food and water. The study is in agreement with the Ethical Principles for Animal Research established by the Brazilian College for Animal Experimentation (COBEA). According to the internal laboratory rules, euthanasia will be performed if severe distress related to the test agents developed during the experiment. Mice were sensitized with two subcutaneous injections of 0.2 ml of OVA/Al(OH)3, with an interval of 7 days (Sham animals received the Al(OH)3 suspension in PBS with no OVA). Chicken egg-white ovalbumin (OVA; grade V, cat. A5503, Sigma Chemical Co., St. Louis, Mo.) was dissolved in sterile phosphate buffered saline (PBS) solution (50 μg/ml) and Al(OH)3 was added (at 8 mg/ml). This mix was used to induce the allergic sensitization of the animals by subcutaneous injection. OVA was dissolved at 1% in sterile PBS solution and this solution was nebulized (as the immunological challenges). Seven days after the second sensitization (i.e., 3rd week), the animals were nebulized twice a week with the 1% OVA solution (Sham and untreated OVA groups were nebulized with PBS) during 20 minutes for the next 4 weeks. Thirty minutes before the challenges (OVA nebulization) and daily during the next 4 weeks, mice were intra-nasally treated (10 μl/animal as 5 μl/nostril) with the respective compounds/vehicle. […] Animals were killed at selected time points by overdose of enflurane and BAL and blood collected.
Airway responsiveness in conscious, spontaneously breathing animals was measured at the end of the 6th week (i.e., after 4 weeks OVA challenges+treatments), 24 h after the last OVA/PBS challenge via whole body plethysmography (Buxco Europe Ltd, Winchester, UK). Experiments were carried out in a quiet room by an investigator who was unaware of the nature of treatments. Aerosolized saline (50 μl/mouse during 60 s) and then the muscarinic agonist metacholine (MCh) at increasing concentrations (3.12, 6.25, 12.5 and 25.0 mg/ml in PBS) was nebulized through an inlet of the main chamber for 3 min each to induce bronchoconstriction and readings were taken and averaged for 6 min following each nebulization. After 20 min. the baseline values usually returned at the end of this period. Enhanced pause (Penh) was measured as an indicator of bronchoconstriction and consequent increase of airway resistance as: Penh=[(expiration time/relaxation time)−1][…].

CC(C)(O)c1ccccc1CCC(SCC1(CC(=O)OCC(=O)[C@@]23O[C@H](C4CCCCC4)O[C@@H]2C[C@H]2[C@@H]4CCC5=CC(=O)C=C[C@]5(C)[C@H]4[C@@H](O)C[C@@]23C)CC1)c1cccc(/C=C/c2ccc3ccc(Cl)cc3n2)c1 (stereo partly shown) [montelukast desisobutyryl-ciclesonide ester]
allergen induced plasma IgE increase ([1]; 0.5, 1 and 2 mg/Kg i.p.): reduces allergen induced IgE increase in a dose-dependent manner
inhibition of allergen induced IgE increase, compared to ciclesonide ([1]; ester 2 mg/kg i.p. vs ciclesonide 1 mg/kg, FIG. 6C): increased inhibitory effect
respiratory function at the lowest dose tested ([2]; 10 nmol/animal/day, comparable with ciclesonide alone at 100 nmol/animal/day): significant effects
airway responsiveness, Penh (basal, methacholine Emax and AUC) ([2]; 10, 30 and 100 nmol/day/animal intranasal, daily for 4 weeks, FIG. 8A-D): Significant reduction of this response; also recorded: significantly reduced
